The values that follow come from ChEMBL document CHEMBL4257466, “The use of matched molecular series networks for cross target structure activity relationship translation and potency prediction” (Medchemcomm, 2017).

pIC50: −log10 of the molar value.

RNA-directed RNA polymerase, sequence (O39930 whole entry): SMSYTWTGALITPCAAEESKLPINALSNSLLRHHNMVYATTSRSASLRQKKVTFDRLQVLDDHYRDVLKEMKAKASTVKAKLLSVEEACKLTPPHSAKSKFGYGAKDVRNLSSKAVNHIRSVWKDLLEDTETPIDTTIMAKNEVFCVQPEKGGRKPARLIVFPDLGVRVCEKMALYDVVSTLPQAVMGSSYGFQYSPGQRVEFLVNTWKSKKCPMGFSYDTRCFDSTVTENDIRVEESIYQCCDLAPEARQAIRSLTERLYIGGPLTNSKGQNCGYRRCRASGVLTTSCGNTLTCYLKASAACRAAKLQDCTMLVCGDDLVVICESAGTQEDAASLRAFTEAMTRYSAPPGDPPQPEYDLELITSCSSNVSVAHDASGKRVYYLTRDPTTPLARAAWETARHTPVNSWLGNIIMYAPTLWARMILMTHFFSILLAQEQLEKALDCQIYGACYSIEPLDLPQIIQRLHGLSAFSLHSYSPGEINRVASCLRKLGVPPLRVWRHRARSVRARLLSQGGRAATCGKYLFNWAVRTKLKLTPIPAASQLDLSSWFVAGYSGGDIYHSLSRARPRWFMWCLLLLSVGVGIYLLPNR

This assay has as its target RNA-directed RNA polymerase (Hepacivirus hominis, UniProt O39930). In words: Inhibition of HCV RNA polymerase.
As usually defined, the pIC50 is −log10 of the IC50, conventionally taken in molar units. A high value points to a low IC50. In turn, `CNC(=O)c1c(-c2ccc(F)cc2)oc2nc(CNC(=O)COC)c(C3CC3)cc12` gave a pIC50 of 5.50.

Molecule `CNC(=O)c1c(-c2ccc(F)cc2)oc2nc(CNS(C)(=O)=O)c(C3CC3)cc12` gave a pIC50 of 6.30.

`CNC(=O)c1c(-c2ccc(F)cc2)oc2nc(CNC(=O)C3CCOC3)c(C3CC3)cc12` (stereo not given) showed a pIC50 of 5.60. Compared with the last molecule, the pIC50 is 0.70 log units lower.

As for `CNC(=O)c1c(-c2ccc(F)cc2)oc2nc(CNC(C)=O)c(C3CC3)cc12`, the negative logarithm of the IC50 (pIC50) is 6.20.

`CNC(=O)c1c(-c2ccc(F)cc2)oc2nc(CN)c(C3CC3)cc12` showed a negative-log IC50 (pIC50) of 5.20.
